What was measured:
[1] = target: Beta-2 adrenergic receptor (Homo sapiens, UniProt P07550); test: DRUGMATRIX: Adrenergic beta2 radioligand binding (ligand: [3H] CGP-12177); type: cell membranes, Membrane; conditions: cho; Not Active = under 50% inhibition at 10 µM
[2] = target: T1, Alpha-2A adrenergic receptor (Homo sapiens, UniProt P08913); type: cell membranes, Sf9, Membrane; further: in other assays of this panel Not Active means under 50% inhibition at 10 µM
T1 sequence (P08913 whole entry): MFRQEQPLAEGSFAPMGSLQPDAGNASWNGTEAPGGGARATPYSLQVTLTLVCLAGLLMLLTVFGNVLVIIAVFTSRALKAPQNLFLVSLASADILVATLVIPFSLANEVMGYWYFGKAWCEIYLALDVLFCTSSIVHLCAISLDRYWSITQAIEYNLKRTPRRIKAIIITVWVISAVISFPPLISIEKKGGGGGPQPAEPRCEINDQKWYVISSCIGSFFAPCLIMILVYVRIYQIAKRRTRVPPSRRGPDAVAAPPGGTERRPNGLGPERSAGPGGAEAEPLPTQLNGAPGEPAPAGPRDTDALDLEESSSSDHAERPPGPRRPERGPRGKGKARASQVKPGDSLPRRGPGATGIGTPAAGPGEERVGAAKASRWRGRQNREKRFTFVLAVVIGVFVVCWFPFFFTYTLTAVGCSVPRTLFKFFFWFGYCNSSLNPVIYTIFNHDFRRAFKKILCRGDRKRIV

[3] = DRUGMATRIX: Purinergic P2X radioligand binding (ligand: [3H] alpha, beta-Methylene-ATP); type: cell membranes, Oryctolagus cuniculus, New Zealand albino, Urinary bladder, Membrane; conditions: Not Active = under 50% inhibition at 10 µM
[4] = DRUGMATRIX: Interleukin IL-1 radioligand binding (ligand: [125I] interleukin 1beta); type: cell membranes, Membrane; conditions: nih3t3; Not Active = under 50% inhibition at 10 µM
D(4) dopamine receptor = target: T2, D(4) dopamine receptor (Homo sapiens, UniProt P21917); test: DRUGMATRIX: Dopamine D4.2 radioligand binding (ligand: [3H] Spiperone); type: cell membranes, Membrane; conditions: cho-k1; Not Active = under 50% inhibition at 10 µM
T2 sequence (P21917 whole entry): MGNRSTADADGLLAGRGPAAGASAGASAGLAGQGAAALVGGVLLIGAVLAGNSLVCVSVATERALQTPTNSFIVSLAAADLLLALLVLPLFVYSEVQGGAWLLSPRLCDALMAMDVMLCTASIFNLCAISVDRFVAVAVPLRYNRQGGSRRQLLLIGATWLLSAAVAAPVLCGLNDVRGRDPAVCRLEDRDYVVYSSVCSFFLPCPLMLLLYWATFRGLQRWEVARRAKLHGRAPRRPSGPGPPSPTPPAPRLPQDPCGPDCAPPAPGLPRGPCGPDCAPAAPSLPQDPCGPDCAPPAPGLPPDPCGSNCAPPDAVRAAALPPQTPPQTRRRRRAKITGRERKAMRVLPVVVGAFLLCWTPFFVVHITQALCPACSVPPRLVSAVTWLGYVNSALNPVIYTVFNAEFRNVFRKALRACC

Substance-P receptor = Substance-P receptor (Homo sapiens, UniProt P25103); type: cell membranes, Membrane; conditions: cho; further: in other assays of this panel Not Active means under 50% inhibition at 10 µM
Sequence of Substance-P receptor (P25103 whole entry): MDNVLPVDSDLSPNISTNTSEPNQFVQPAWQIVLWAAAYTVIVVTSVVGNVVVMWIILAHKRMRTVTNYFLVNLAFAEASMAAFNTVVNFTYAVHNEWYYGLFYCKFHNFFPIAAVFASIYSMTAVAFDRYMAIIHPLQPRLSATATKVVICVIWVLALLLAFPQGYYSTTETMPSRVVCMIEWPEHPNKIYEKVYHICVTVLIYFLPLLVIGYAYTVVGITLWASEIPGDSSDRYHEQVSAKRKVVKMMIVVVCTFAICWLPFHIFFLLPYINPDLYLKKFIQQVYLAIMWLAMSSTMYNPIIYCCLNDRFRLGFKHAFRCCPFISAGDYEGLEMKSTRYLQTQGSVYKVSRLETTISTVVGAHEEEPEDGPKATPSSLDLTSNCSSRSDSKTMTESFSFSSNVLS

[5] = target: 5-hydroxytryptamine receptor 4 (Cavia porcellus, UniProt O70528); type: cell membranes, Dunkin-Hartley, Striatum, Membrane; further: in other assays of this panel Not Active means under 50% inhibition at 10 µM
Sequence of 5-hydroxytryptamine receptor 4 (O70528 whole entry): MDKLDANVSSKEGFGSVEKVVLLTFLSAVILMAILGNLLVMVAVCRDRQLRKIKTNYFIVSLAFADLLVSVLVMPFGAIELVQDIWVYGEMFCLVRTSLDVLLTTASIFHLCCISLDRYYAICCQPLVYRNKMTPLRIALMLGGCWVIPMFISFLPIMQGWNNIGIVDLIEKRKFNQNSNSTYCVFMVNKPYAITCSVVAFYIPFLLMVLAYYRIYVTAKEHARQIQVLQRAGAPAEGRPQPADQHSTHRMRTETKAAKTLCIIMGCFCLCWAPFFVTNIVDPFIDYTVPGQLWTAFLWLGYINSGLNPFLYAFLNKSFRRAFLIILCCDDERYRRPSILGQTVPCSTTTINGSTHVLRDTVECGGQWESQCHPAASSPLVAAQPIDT

Sequence of Beta-2 adrenergic receptor (P07550 whole entry): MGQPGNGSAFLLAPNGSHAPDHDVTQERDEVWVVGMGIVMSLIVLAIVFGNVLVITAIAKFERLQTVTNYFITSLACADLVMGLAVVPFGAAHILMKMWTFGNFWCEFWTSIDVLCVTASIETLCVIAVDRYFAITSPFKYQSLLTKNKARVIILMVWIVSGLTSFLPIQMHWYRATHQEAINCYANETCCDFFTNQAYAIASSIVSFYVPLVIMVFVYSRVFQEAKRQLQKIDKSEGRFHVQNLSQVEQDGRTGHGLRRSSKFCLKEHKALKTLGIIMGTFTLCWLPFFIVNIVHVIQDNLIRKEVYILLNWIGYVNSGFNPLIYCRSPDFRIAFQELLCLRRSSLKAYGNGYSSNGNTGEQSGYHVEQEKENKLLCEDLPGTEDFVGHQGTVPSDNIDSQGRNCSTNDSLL

| SMILES | IC50 [1] | IC50 ([2]; sf9) | IC50 [3] | Ki [3] | IC50 [4] | Ki [4] | IC50 (D(4) dopamine receptor) | IC50 (Substance-P receptor) | IC50 [5] | IC50 ([2]; read-out: IC50) [nM] | Ki ([2]; read-out: Ki) [nM] |
| --- | --- | --- | --- | --- | --- | --- | --- | --- | --- | --- | --- |
| COc1ccc2[nH]c([S+]([O-])Cc3ncc(C)c(OC)c3C)nc2c1 (stereo not drawn) [OMEPRAZOLE] | Not Active | Not Active | Not Active | Not Active | Not Active | Not Active | Not Active | Not Active | Not Active | – | – |
| C[C@@]12C(=O)OC(=O)[C@]1(C)[C@H]1CC[C@@H]2O1 [CANTHARIDIN] | Not Active | Not Active | Not Active | Not Active | Not Active | Not Active | Not Active | Not Active | Not Active | – | – |
| Nc1c(CC(=O)O)cccc1C(=O)c1ccc(Br)cc1 [BROMFENAC] | Not Active | Not Active | Not Active | Not Active | Not Active | Not Active | Not Active | Not Active | Not Active | – | – |
| C[C@H]1O[C@@H](O[C@H]2[C@@H](O)C[C@H](O[C@H]3[C@@H](O)C[C@H](O[C@H]4CC[C@@]5(C)[C@H](CC[C@@H]6[C@@H]5CC[C@]5(C)[C@@H](C7=CC(=O)OC7)CC[C@]65O)C4)O[C@@H]3C)O[C@@H]2C)C[C@H](O)[C@@H]1O [DIGITOXIN] | Not Active | Not Active | Not Active | Not Active | Not Active | Not Active | Not Active | Not Active | Not Active | – | – |
| C[N+](C)(C)CCO.[Cl-] [CHOLINE CHLORIDE] | Not Active | Not Active | Not Active | Not Active | Not Active | Not Active | Not Active | Not Active | Not Active | – | – |
| CN(C)c1ccc(C(=C2C=CC(=[N+](C)C)C=C2)c2ccc(N(C)C)cc2)cc1.[Cl-] [GENTIAN VIOLET] | Not Active | – | Not Active | Not Active | Not Active | Not Active | Not Active | Not Active | Not Active | 536 | 201 |
| O=S(=O)([O-])CCS.[Na+] [MESNA] | Not Active | Not Active | Not Active | Not Active | Not Active | Not Active | Not Active | Not Active | Not Active | – | – |
| O=C(O)Cc1ccccc1Nc1c(Cl)cccc1Cl [DICLOFENAC] | Not Active | Not Active | Not Active | Not Active | Not Active | Not Active | Not Active | Not Active | Not Active | – | – |
| COc1ccccc1C(=O)N1CCC(Cc2ccccc2)CC1 | Not Active | Not Active | Not Active | Not Active | Not Active | Not Active | Not Active | Not Active | Not Active | – | – |
| CCC1=C[C@@H]2CN(C1)Cc1c([nH]c3ccccc13)[C@@](C(=O)OC)(c1cc3c(cc1OC)N(C)[C@H]1[C@@](O)(C(=O)OC)[C@H](OC(C)=O)[C@]4(CC)C=CCN5CC[C@]31[C@@H]54)C2 [VINORELBINE] | Not Active | Not Active | Not Active | Not Active | Not Active | Not Active | Not Active | Not Active | Not Active | – | – |
| CCOC(=O)[C@H](CCc1ccccc1)N[C@H]1CCc2ccccc2N(CC(=O)O)C1=O [BENAZEPRIL] | Not Active | Not Active | Not Active | Not Active | Not Active | Not Active | Not Active | Not Active | Not Active | – | – |
| CCOC(=O)C(C)(C)Oc1ccc(Cl)cc1 [CLOFIBRATE] | Not Active | Not Active | Not Active | Not Active | Not Active | Not Active | Not Active | Not Active | Not Active | – | – |
| CC(=O)Nc1c(I)c(NC(C)=O)c(I)c(C(=O)O)c1I [DIATRIZOIC ACID] | Not Active | Not Active | Not Active | Not Active | Not Active | Not Active | Not Active | Not Active | Not Active | – | – |

From ChEMBL document CHEMBL1909046, “DrugMatrix in vitro pharmacology data”
